Test results from publication PMC12024264, “Frog Skin Peptides Hylin-a1, AR-23, and RV-23: Promising Tools Against Carbapenem-Resistant Escherichia coli and Klebsiella pneumoniae Infections” (Antibiotics, 2025).
In brackets after ≈: the same amount, converted by molar mass. Read-outs that look alike come from different tables or passages of the source.

Key:
Assay in all cases: Antibiotic resistance profile of clinical isolate (Table S1)
E. coli 716 = format: cell-based, Escherichia coli
Protocol: (§1) Each strain was grown in Mueller Hinton Broth (MH Broth), and 5 × 10^5 CFU/mL was used to evaluate antibacterial activity. Clinical carbapenem-resistant K. pneumoniae and E. coli isolates were collected at the AOU of Virology and Microbiology of the University of Campania “Luigi Vanvitelli”. […]
(§2) Table S1. Antibiotic resistance profile of K. pneumoniae and E. coli clinical isolates . MIC: Minimum Inhibitory
(§3) Concentration was expressed in µg/mL; S: Sensible; I: Intermediate; R: Resistant.
(§4) Antibiotic Resistance Profile of the Clinical Isolated Bacteria
(§5) Antibiotics MIC (µg/mL) Interpretation […]

E. coli 1376 = format: cell-based, Escherichia coli; details: for MIC: Escherichia coli
Protocol: as §1, §2, §3, §4, §5

E. coli 3140 = format: cell-based, Escherichia coli; details: for MIC: Escherichia coli
Protocol: as §1, §2, §3, §4, §5

E. coli 2267 = format: cell-based, Escherichia coli; details: Table S1, E. coli 2267
Protocol: as §1, §2, §3, §4, §5

E. coli 1441 = format: cell-based, Escherichia coli; details: for MIC: Escherichia coli
Protocol: as §1, §2, §3, §4, §5

K. pneumoniae 1745 = format: cell-based, Klebsiella pneumoniae; details: Table S1, K. pneumoniae 1745
Protocol: as §1, §2, §3, §4, §5

K. pneumoniae 1711 = format: cell-based, Klebsiella pneumoniae; details: Table S1, K. pneumoniae 1711
Protocol: as §1, §2, §3, §4, §5

K. pneumoniae 1746 = format: cell-based, Klebsiella pneumoniae
Protocol: as §1, §2, §3, §4, §5

K. pneumoniae 311 = format: cell-based, Klebsiella pneumoniae
Protocol: as §1, §2, §3, §4, §5

[1] = Escherichia coli, read-out: MIC
[2] = Klebsiella pneumoniae, read-out: MIC

Molecule | Interpretation (E. coli 716; Table S1, E. coli 716) | Interpretation (E. coli 1376; Table S1, E. coli 1376) | Interpretation (E. coli 3140; Table S1, E. coli 3140) | Interpretation (E. coli 2267) | Interpretation (E. coli 1441; Table S1, E. coli 1441) | Interpretation (K. pneumoniae 1745) | Interpretation (K. pneumoniae 1711) | Interpretation (K. pneumoniae 1746; Table S1, K. pneumoniae 1746) | Interpretation (K. pneumoniae 311; Table S1, K. pneumoniae 311) | MIC (E. coli 716; Escherichia coli, 716) | MIC (E. coli 1376; 1376) | MIC (E. coli 3140; 3140) | MIC (E. coli 2267; [1]) | MIC (E. coli 1441; 1441) | MIC (K. pneumoniae 1745; [2]) | MIC (K. pneumoniae 1711; [2]) | other results
Ceftazidime-avibactam | S | S | S | S | S | R | R | R | S | – | – | – | – | – | – | – | MIC (E. coli 716; Table S1, E. coli 716): 8/4; MIC (E. coli 2267): 8/4; MIC (K. pneumoniae 1745): > 8/4; MIC (K. pneumoniae 1711): > 8/4; MIC (K. pneumoniae 1746; Table S1, K. pneumoniae 1746): > 8/4; MIC (K. pneumoniae 311; Table S1, K. pneumoniae 311): 1/ 4
CC(C)(O/N=C(\C(=O)N[C@@H]1C(=O)N2C(C(=O)[O-])=C(C[n+]3ccccc3)CS[C@H]12)c1csc(N)n1)C(=O)O [Ceftazidime] | R | R | R | R | R | R | R | R | R | > 16 µg/mL | > 16 µg/mL | 16 µg/mL (≈ 29.3 µM) | > 16 µg/mL | > 16 µg/mL | > 16 µg/mL | > 16 µg/mL | MIC (K. pneumoniae 1746; Klebsiella pneumoniae, 1746): > 16 µg/mL; MIC (K. pneumoniae 311; Klebsiella pneumoniae, 311): > 16 µg/mL
O=C1CN(/N=C/c2ccc([N+](=O)[O-])o2)C(=O)N1 [Nitrofurantoin] | – | – | S | – | – | – | – | – | – | – | – | ≤ 16 µg/mL | – | – | – | – | –
Colistin | – | – | – | – | – | – | – | S | – | – | – | – | – | – | – | – | MIC (K. pneumoniae 1746; Table S1, K. pneumoniae 1746): 0.25 µg/mL
CO/N=C(\C(=O)N[C@@H]1C(=O)N2C(C(=O)O)=C(COC(N)=O)CS[C@H]12)c1ccco1 [Cefuroxime] | R | R | R | R | R | R | R | – | R | > 8 µg/mL | > 8 µg/mL | > 8 µg/mL | > 8 µg/mL | > 8 µg/mL | > 8 µg/mL | > 8 µg/mL | MIC (K. pneumoniae 311; Klebsiella pneumoniae, 311): > 8 µg/mL
CC(C)(O/N=C(\C(=O)N[C@@H]1C(=O)N2C(C(=O)[O-])=C(C[N+]3(CCNC(=O)c4ccc(O)c(O)c4Cl)CCCC3)CS[C@H]12)c1csc(N)n1)C(=O)O [Cefiderocol] | – | – | – | – | – | – | I | S | – | – | – | – | – | – | – | – | –
CO/N=C(\C(=O)N[C@@H]1C(=O)N2C(C(=O)[O-])=C(C[N+]3(C)CCCC3)CS[C@H]12)c1csc(N)n1 [Cefepime] | – | – | – | R | – | R | R | – | – | – | – | – | – | – | – | – | –
CO[C@@]1(NC(=O)C(C(=O)O)c2ccsc2)C(=O)N2[C@@H](C(=O)O)C(C)(C)S[C@@H]21 (stereo partly shown) [Temocillin] | R | R | R | R | S | R | R | – | R | – | – | – | > 32 µg/mL | – | > 32 µg/mL | > 32 µg/mL | MIC (E. coli 716; Escherichia coli, Table S1, E. coli 716, read-out: MIC): > 32 µg/mL; MIC (E. coli 1376; Table S1, E. coli 1376, read-out: MIC): > 32 µg/mL; MIC (E. coli 3140; Table S1, E. coli 3140, read-out: MIC): > 32 µg/mL; MIC (E. coli 1441; Table S1, E. coli 1441, read-out: MIC): 8 µg/mL (≈ 19.3 µM); MIC (K. pneumoniae 311; Klebsiella pneumoniae, Table S1, K. pneumoniae 311, read-out: MIC): > 32 µg/mL
CN(C)c1cc(NC(=O)CNC(C)(C)C)c(O)c2c1C[C@H]1C[C@H]3[C@H](N(C)C)C(O)=C(C(N)=O)C(=O)[C@@]3(O)C(O)=C1C2=O [Tigecycline] | R | S | – | R | S | – | – | – | – | > 2 µg/mL | ≤ 0.5 µg/mL | – | > 2 µg/mL | ≤ 0.5 µg/mL | – | – | –
C[C@@H]1O[C@@H]1P(=O)(O)O [Fosfomycin] | S | R | – | S | S | S | S | S | S | ≤ 16 µg/mL | > 64 µg/mL | – | ≤ 16 µg/mL | ≤ 16 µg/mL | ≤ 16 µg/mL | 32 µg/mL (≈ 232 µM) | MIC (K. pneumoniae 1746; Klebsiella pneumoniae, 1746): ≤ 16 µg/mL; MIC (K. pneumoniae 311; Klebsiella pneumoniae, 311): ≤ 16 µg/mL
C[C@H]1[C@H](NC(=O)/C(=N\OC(C)(C)C(=O)O)c2csc(N)n2)C(=O)N1S(=O)(=O)O [Aztreonam] | – | – | – | R | – | R | R | – | – | – | – | – | – | – | – | – | –
CCn1cc(C(=O)O)c(=O)c2cc(F)c(N3CCNCC3)cc21 [Norfloxacin] | – | – | S | – | – | – | – | – | – | – | – | ≤ 0.5 µg/mL | – | – | – | – | –
